In ChEMBL document CHEMBL3045945, “INHIBITORS OF FILARIAL GAMMA-GLUTAMYL CYCLE ENZYMES AS POSSIBLE MACROFILARICIDAL AGENTS” (Med Chem Res, 2004):
pKi: −log10 of the molar value. Structures can show the parent of a compound that is named as a salt. Active and inactive are the calls of the source. No cut-off for these calls is given here.

biological target: Glutathione hydrolase 1 proenzyme (Rattus norvegicus, UniProt P07314); experiment: Inhibition of Rattus norvegicus Wistar (rat) rat Gamma-glutamyltranspeptidase using L-gamma-glutamyl-p-nitroanilide as substrate incubated for 15 min prior to substrate addition by spectrophotometric analysis
Sequence (P07314 1-379 limits assumed): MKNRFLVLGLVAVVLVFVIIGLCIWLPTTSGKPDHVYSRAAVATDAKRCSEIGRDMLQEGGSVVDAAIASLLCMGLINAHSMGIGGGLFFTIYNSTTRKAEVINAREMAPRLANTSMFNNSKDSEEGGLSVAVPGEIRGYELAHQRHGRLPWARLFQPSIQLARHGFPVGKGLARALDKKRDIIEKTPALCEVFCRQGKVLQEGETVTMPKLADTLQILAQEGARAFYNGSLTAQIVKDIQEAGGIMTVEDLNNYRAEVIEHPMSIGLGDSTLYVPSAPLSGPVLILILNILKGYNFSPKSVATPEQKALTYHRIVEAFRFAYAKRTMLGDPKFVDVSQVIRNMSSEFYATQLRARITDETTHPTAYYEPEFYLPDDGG
Sequence (P07314 380-568 limits assumed): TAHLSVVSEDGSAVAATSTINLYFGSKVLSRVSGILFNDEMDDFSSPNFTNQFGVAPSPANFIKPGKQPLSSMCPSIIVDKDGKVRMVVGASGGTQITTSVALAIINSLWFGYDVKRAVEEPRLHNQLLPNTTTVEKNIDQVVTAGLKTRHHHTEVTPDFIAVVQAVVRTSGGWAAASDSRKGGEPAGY

Structure (SMILES)	pKi
N[C@@H](CO)C(=O)O [SERINE]	4.30

system: Setaria cervi; experiment: Antifilarial activity against Setaria cervi assessed as change in GSH level at 250 uM after 6 hr by RP-HPLC analysis; assay type: functional

Structure (SMILES)	Activity
CCOC(=O)CC(NCCCNC(CC(=O)OCC)[C@@H]1O[C@H]2OC(C)(C)O[C@H]2[C@@H]1OCc1ccccc1)C1O[C@@H]2OC(C)(C)OC2[C@H]1OCc1ccccc1 (single isomer, unassigned)	59.12%
CCOC(=O)CC(NCCCCCCCCCCNC(CC(=O)OCC)[C@@H]1O[C@H]2OC(C)(C)O[C@H]2[C@@H]1OC)[C@H]1O[C@@H]2OC(C)(C)O[C@@H]2[C@H]1OC (some centres not stated)	48%
CO[C@H]1[C@@H](CNCCCCCCCNC[C@@H]2O[C@H]3OC(C)(C)OC3[C@@H]2OC)OC2OC(C)(C)O[C@@H]21 (single isomer, unassigned)	52.54%
CCCCS(=N)(=O)CC[C@H](N)C(=O)O (some centres not stated) [BUTHIONINE SULFOXIME]	35.78%
CC1(C)O[C@@H]2O[C@@H](CNCCCCCCCCCCNC[C@H]3O[C@@H]4OC(C)(C)O[C@@H]4[C@H]3OCc3ccccc3)[C@@H](OCc3ccccc3)[C@@H]2O1	52.5%
CCCc1cc(=O)oc2cc(OCC(=O)OCC)ccc12	5.75%
CCOC(=O)CC(NCCCCCCCCCCCCNC(CC(=O)OCC)[C@@H]1O[C@H]2OC(C)(C)O[C@H]2[C@@H]1OC)[C@H]1O[C@@H]2OC(C)(C)O[C@@H]2[C@H]1OC (stereo in doubt)	37.43%
CC(C)=CC(=O)C=C(C)C [PHORONE]	93.7%
Cc1cc(=O)oc2cc(OCC(=O)NC3CCCCC3)ccc12	46%
CC1=CC(=O)c2ccccc2C1=O [MENADIONE]	96.04%
CCOC(=O)CC(NCCCCCCCCCCNC(CC(=O)OCC)[C@@H]1O[C@H]2OC(C)(C)O[C@H]2[C@@H]1OCc1ccccc1)[C@H]1O[C@@H]2OC(C)(C)O[C@@H]2[C@H]1OCc1ccccc1 (some centres not stated)	58.17%
COC(=O)/C=C\C(=O)OC [DIMETHYL MALEATE]	95.82%
CC1(C)O[C@@H]2O[C@@H](CNCCCCCCCCCCCCNC[C@H]3O[C@@H]4OC(C)(C)O[C@@H]4[C@H]3OCc3ccccc3)[C@@H](OCc3ccccc3)[C@@H]2O1	60%
CC1(C)O[C@@H]2O[C@@H](CNCCCCCCCNC[C@H]3O[C@@H]4OC(C)(C)O[C@@H]4[C@H]3OCc3ccccc3)[C@@H](OCc3ccccc3)[C@@H]2O1	69.29%
CCOC(=O)CC(NCCCCCCCNC(CC(=O)OCC)[C@H]1O[C@@H]2OC(C)(C)OC2[C@H]1OCc1ccccc1)C1OC2OC(C)(C)O[C@H]2[C@@H]1OCc1ccccc1 (single isomer, unassigned)	15.9%
CCCCCCCCCCCCCC(=O)Oc1ccc2c(C)cc(=O)oc2c1	inactive
O=NN(CCCl)C(=O)NCCCl [CARMUSTINE]	68.97%
Cc1cc(=O)oc2cc(OCC(=O)NCCCCCCCCCCCCN)ccc12	3.22%
CCOC(=O)CC(NCCCCCCCNC(CC(=O)OCC)[C@@H]1O[C@H]2OC(C)(C)O[C@H]2[C@@H]1OC)[C@H]1O[C@@H]2OC(C)(C)O[C@@H]2[C@H]1OC (some centres not stated)	39.04%
Cc1cc(C)c2c(C)cc(=O)oc2c1	65%
Cc1cc2oc(=O)cc(C)c2cc1C	42.07%
CO[C@@H]1[C@H]2OC(C)(C)O[C@H]2O[C@@H]1CNCCCCCCCCCCNC[C@@H]1O[C@H]2OC(C)(C)O[C@H]2[C@@H]1OC	33.14%
CCOC(=O)CC(NCCCNC(CC(=O)OCC)[C@@H]1O[C@H]2OC(C)(C)O[C@H]2[C@@H]1OC)[C@H]1O[C@@H]2OC(C)(C)O[C@@H]2[C@H]1OC (some centres not stated)	14.55%
CCOC(=O)CC(NCCCCCCCCCCCCNC(CC(=O)OCC)[C@@H]1O[C@H]2OC(C)(C)O[C@H]2[C@@H]1OCc1ccccc1)[C@H]1O[C@@H]2OC(C)(C)O[C@@H]2[C@H]1OCc1ccccc1 (some centres not stated)	67%
CN(C)c1ccc2nc3ccc(N(C)C)cc3[s+]c2c1.[Cl-] [METHYLENE BLUE ANHYDROUS]	34.68%
CO[C@@H]1[C@H]2OC(C)(C)O[C@H]2O[C@@H]1CNCCCCCCCCCCCCNC[C@@H]1O[C@H]2OC(C)(C)O[C@H]2[C@@H]1OC (stereo in doubt)	39%
